The supplement of paper PMC10307832

compound: O=C(Nc1cc(C(F)(F)F)cc(C(F)(F)F)c1)c1cc(Cl)ccc1O [IMD-0354] + CC1(C)CCC(c2ccc(Cl)cc2)=C(CN2CCN(c3ccc(C(=O)NS(=O)(=O)c4ccc(N[C@H](CCN5CCOCC5)CSc5ccccc5)c(S(=O)(=O)C(F)(F)F)c4)cc3)CC2)C1 [Navitoclax] (partner 0.5 µM); experiment: relative viability (nuclei count vs DMSO), 5 days (fraction); higher = more cells survive; settings: first compound 4 µM
In short: (§1)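 One day after seeding in 1536-well plates, lung cancer cell lines were dosed by pin tool. Dosing was either single-drug or a fixed anchor-drug dose plus five library-drug doses (not always all listed) in √10 steps. After 5 days, nuclei were stained in one fix-and-stain step and counted on 4× images, and relative viability is the nuclei count of treated wells over that of vehicle wells, given as the median of duplicate plates.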

Row | Cell Line | relative viability
1 | NCI-H1944 | 0.125

compound: O=C(Nc1cc(C(F)(F)F)cc(C(F)(F)F)c1)c1cc(Cl)ccc1O [IMD-0354] + Nc1nc2[nH]cc(CCc3ccc(C(=O)N[C@@H](CCC(=O)O)C(=O)O)cc3)c2c(=O)[nH]1 [Pemetrexed] (partner 0.2 µM); experiment: as above; settings: first compound 0.04 µM
In short: as §1

Row | Cell Line | relative viability
2 | HOP-62 | 0.348
3 | LU99A | 0.194
4 | BEN | 0.815
5 | HARA | 0.318
6 | HCC-78 | 0.972
7 | NCI-H322M | 0.673
8 | LCLC-97TM1 | 0.202
9 | NCI-H2009 | 0.934
10 | A-427 | 1.08
11 | NCI-H441 | 0.255
12 | NCI-H1734 | 0.449
13 | NCI-H460 | 0.0638
14 | NCI-H2347 | 0.387
15 | SW 1573 | 0.872
16 | NCI-H1793 | 0.971
17 | 201T | 0.271

Row | Cell Line | relative viability
18 | NCI-H1915 | 0.557
19 | HCC-827 | 0.26
20 | LXF-289 | 0.898
21 | NCI-H23 | 0.78
22 | NCI-H647 | 0.182
23 | CAL-12T | 1.37
24 | NCI-H1651 | 0.653
25 | EPLC-272H | 0.332
26 | NCI-H2228 | 0.379
27 | NCI-H1355 | 1.07
28 | NCI-H3122 | 0.196
29 | NCI-H1437 | 0.321
30 | NCI-H1755 | 0.458
31 | NCI-H2023 | 0.217
32 | HCC-15 | 0.211
33 | NCI-H1944 | 0.593

same assay, conditions: first compound 0.1265 µM

Row | Cell Line | relative viability
34 | HOP-62 | 0.308
35 | LU99A | 0.201
36 | BEN | 0.758
37 | HARA | 0.271
38 | HCC-78 | 0.885
39 | NCI-H322M | 0.65
40 | LCLC-97TM1 | 0.162
41 | NCI-H2009 | 1
42 | A-427 | 0.982
43 | NCI-H441 | 0.251
44 | NCI-H1734 | 0.458
45 | NCI-H460 | 0.0692
46 | NCI-H2347 | 0.435
47 | SW 1573 | 0.799
48 | NCI-H1793 | 0.795
49 | 201T | 0.343

Row | Cell Line | relative viability
50 | NCI-H1915 | 0.469
51 | HCC-827 | 0.267
52 | LXF-289 | 0.884
53 | NCI-H23 | 0.693
54 | NCI-H647 | 0.148
55 | CAL-12T | 0.916
56 | NCI-H1651 | 0.647
57 | EPLC-272H | 0.278
58 | NCI-H2228 | 0.37
59 | NCI-H1355 | 1.1
60 | NCI-H3122 | 0.211
61 | NCI-H1437 | 0.338
62 | NCI-H1755 | 0.407
63 | NCI-H2023 | 0.212
64 | HCC-15 | 0.215
65 | NCI-H1944 | 0.683

same assay, conditions: first compound 0.4 µM

Row | Cell Line | relative viability
66 | HOP-62 | 0.268
67 | LU99A | 0.143
68 | BEN | 0.506
69 | HARA | 0.207
70 | HCC-78 | 0.637
71 | NCI-H322M | 0.543
72 | LCLC-97TM1 | 0.102
73 | NCI-H2009 | 0.722
74 | A-427 | 0.531
75 | NCI-H441 | 0.289
76 | NCI-H1734 | 0.369
77 | NCI-H460 | 0.0923
78 | NCI-H2347 | 0.373
79 | SW 1573 | 0.271
80 | NCI-H1793 | 0.446
81 | 201T | 0.368

Row | Cell Line | relative viability
82 | NCI-H1915 | 0.357
83 | HCC-827 | 0.243
84 | LXF-289 | 0.868
85 | NCI-H23 | 0.324
86 | NCI-H647 | 0.185
87 | CAL-12T | 0.574
88 | NCI-H1651 | 0.38
89 | EPLC-272H | 0.474
90 | NCI-H2228 | 0.292
91 | NCI-H1355 | 0.673
92 | NCI-H3122 | 0.18
93 | NCI-H1437 | 0.221
94 | NCI-H1755 | 0.387
95 | NCI-H2023 | 0.118
96 | HCC-15 | 0.198
97 | NCI-H1944 | 0.642

same assay, conditions: first compound 1.265 µM

Row | Cell Line | relative viability
98 | HOP-62 | 0.141
99 | LU99A | 0.188
100 | BEN | 0.373
101 | HARA | 0.202
102 | HCC-78 | 0.96
103 | NCI-H322M | 0.332
104 | LCLC-97TM1 | 0.0974
105 | NCI-H2009 | 0.324
106 | A-427 | 0.157
107 | NCI-H441 | 0.177
108 | NCI-H1734 | 0.23
109 | NCI-H460 | 0.0741
110 | NCI-H2347 | 0.365
111 | SW 1573 | 0.131
112 | NCI-H1793 | 0.191
113 | 201T | 0.319

Row | Cell Line | relative viability
114 | NCI-H1915 | 0.399
115 | HCC-827 | 0.19
116 | LXF-289 | 0.26
117 | NCI-H23 | 0.18
118 | NCI-H647 | 0.111
119 | CAL-12T | 0.559
120 | NCI-H1651 | 0.14
121 | EPLC-272H | 0.247
122 | NCI-H2228 | 0.22
123 | NCI-H1355 | 0.527
124 | NCI-H3122 | 0.281
125 | NCI-H1437 | 0.191
126 | NCI-H1755 | 0.375
127 | NCI-H2023 | 0.0926
128 | HCC-15 | 0.175
129 | NCI-H1944 | 0.146

same assay, conditions: first compound 4 µM

Row | Cell Line | relative viability
130 | HOP-62 | 0.0739
131 | LU99A | 0.149
132 | BEN | 0.322
133 | HARA | 0.151
134 | HCC-78 | 0.902
135 | NCI-H322M | 0.422
136 | LCLC-97TM1 | 0.0756
137 | NCI-H2009 | 0.124
138 | A-427 | 0.169
139 | NCI-H441 | 0.147
140 | NCI-H1734 | 0.129
141 | NCI-H460 | 0.0289
142 | NCI-H2347 | 0.27
143 | SW 1573 | 0.0794
144 | NCI-H1793 | 0.257
145 | 201T | 0.234
146 | NCI-H1915 | 0.163
147 | HCC-827 | 0.163
148 | LXF-289 | 0.129
149 | NCI-H23 | 0.235
150 | NCI-H647 | 0.0986
151 | CAL-12T | 0.204
152 | NCI-H1651 | 0.116
153 | EPLC-272H | 0.214
154 | NCI-H2228 | 0.125
155 | NCI-H1355 | 0.216
156 | NCI-H3122 | 0.15
157 | NCI-H1437 | 0.202
